From patent US11723888B2, “Polymer conjugated thyrointegrin antagonists” (NanoPharmaceuticals, LLC, priority 2021, dated 2023)

Molecular target: purified αvβ3 (Homo sapiens, UniProt P05106+P06756)
Assay: Binding affinity to purified αvβ3 (fibrinogen-coated plate, IC50)
Conditions: purified αvβ3, fibrinogen-coated plates, 2 hours room temperature
Method: The binding affinity of exemplary compounds is show in FIG. 11A, including P-bi-TET and m-P-mono-TET (both having n=36). The method was as follows: The binding affinity of P-bi-TET and m-P-mono-TET to purified αvβ3 was measured using the method described by Li, W., et al., Pharmacokinetics, Biodistribution, and Anti-Angiogenesis Efficacy of Diamino Propane Tetraiodothyroacetic Acid-conjugated Biodegradable Polymeric Nanoparticle. Sci Rep, 2019. 9(1): p. 9006. Ninety-six polystyrene microtiter plates coated with fibrinogen and incubated at 4° C. overnight. The wells were blocked with 3% BSA for 2 hours at room temperature and were washed with buffer A (50 mM Tris/HCl, 100 mM NaCl, 1 mM CaCl2), 1 mM MgCl2, 1% BSA) for three times. Integrins αvβ3 and increasing concentrations of P-bi-TET or m-P-mono-TET were added and incubated for 2 hours at room temperature, and then wells were washed three times with buffer A and incubated with a streptavidin HRP conjugate (1:1000 in buffer A) for 1 hour at room temperature. Finally, wells were washed three times with buffer A and 100 μL peroxidase substrate TMB was added, and the reaction was terminated after 30 minutes with 50 μL of 450 nm stop solution for TMB. Absorbance was determined at 450 nm with a Microplate Reader (Bio-Rad, Hercules, Calif., USA). […]

Chain of purified αvβ3 (P06756 31-889 limits assumed): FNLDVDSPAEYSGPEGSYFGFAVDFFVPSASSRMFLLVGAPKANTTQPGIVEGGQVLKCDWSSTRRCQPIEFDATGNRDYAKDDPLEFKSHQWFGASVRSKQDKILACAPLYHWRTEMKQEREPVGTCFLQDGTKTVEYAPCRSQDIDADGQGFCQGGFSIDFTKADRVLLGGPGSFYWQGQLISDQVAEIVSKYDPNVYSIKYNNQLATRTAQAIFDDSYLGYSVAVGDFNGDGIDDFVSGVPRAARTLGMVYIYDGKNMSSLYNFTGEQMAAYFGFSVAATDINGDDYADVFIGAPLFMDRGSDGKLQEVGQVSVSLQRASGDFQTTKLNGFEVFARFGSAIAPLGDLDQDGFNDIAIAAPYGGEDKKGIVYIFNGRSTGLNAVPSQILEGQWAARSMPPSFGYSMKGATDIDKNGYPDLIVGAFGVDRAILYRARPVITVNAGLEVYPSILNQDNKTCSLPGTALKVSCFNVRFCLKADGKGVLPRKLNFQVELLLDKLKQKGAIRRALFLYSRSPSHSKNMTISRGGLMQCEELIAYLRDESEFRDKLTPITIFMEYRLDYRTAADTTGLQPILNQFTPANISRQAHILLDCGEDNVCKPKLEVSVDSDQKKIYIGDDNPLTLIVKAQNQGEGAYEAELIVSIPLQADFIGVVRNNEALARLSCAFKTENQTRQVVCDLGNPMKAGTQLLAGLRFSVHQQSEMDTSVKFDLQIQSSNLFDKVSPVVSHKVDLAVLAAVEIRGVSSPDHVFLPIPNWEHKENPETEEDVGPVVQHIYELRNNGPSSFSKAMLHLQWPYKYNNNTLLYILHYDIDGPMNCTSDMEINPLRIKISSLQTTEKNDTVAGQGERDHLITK
Chain of purified αvβ3 (P06756 891-1048 limits assumed): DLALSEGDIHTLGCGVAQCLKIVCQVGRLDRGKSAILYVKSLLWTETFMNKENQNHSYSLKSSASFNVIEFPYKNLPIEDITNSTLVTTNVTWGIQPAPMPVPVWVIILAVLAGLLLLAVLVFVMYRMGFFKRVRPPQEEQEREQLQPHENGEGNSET
Chain of purified αvβ3 (P05106 27-788): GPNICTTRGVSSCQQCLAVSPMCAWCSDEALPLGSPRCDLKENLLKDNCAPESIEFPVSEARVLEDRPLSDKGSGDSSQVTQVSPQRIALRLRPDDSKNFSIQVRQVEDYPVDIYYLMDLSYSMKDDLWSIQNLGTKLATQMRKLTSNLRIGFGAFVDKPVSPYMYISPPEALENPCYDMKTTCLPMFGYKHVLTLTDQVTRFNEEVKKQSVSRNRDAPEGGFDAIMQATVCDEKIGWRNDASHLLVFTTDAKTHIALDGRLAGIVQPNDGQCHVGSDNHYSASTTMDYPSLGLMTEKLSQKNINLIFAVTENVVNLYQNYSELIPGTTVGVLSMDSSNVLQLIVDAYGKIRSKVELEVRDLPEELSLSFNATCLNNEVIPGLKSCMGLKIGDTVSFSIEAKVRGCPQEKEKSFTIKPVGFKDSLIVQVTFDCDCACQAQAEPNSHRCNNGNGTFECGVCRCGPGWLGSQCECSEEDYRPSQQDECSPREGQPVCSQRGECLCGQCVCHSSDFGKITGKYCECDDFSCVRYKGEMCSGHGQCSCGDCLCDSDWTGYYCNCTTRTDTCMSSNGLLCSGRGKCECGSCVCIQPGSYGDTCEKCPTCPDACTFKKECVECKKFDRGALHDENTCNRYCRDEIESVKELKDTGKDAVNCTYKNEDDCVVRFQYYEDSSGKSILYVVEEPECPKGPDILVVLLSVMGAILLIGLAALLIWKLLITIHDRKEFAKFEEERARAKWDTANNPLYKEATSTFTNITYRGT

Structure (SMILES): O=C(O)Cc1cc(I)c(Oc2cc(I)c(O)c(I)c2)c(I)c1 [Tetrac, tetraiodothyroacetic acid]
- IC50: 105.4 ± 0.86 nM
